Results on one compound are retold here after patent US11213522B2, “Autoimmune-induced glutamatergic receptor dysfunction methods and treatments” (SARAH HERZOG MEMORIAL HOSPITAL EZRAT NASHIM ASSOCIATION, priority 2013, dated 2022).

A value given as a limit tells only on which side of the number the result lay.

Series [1] relates to patient positive for anti-NR1 NMDAR antibodies. The series is described as follows: Tower of London (ToL). It is filed as in vivo, human. As to conditions: post-6 weeks D-serine. The procedure:
(§1) The trial consisted of two periods, starting with a 2 week lead-in/stabilization period (−2-0) following which the patient was entered in the second period of the study which consisted of a 6 week (0-6), open-label, fixed dose therapy phase. During this phase, the patient received adjuvant treatment with DSR, whose dose was increased from 1500 mg/day (week 1) to 2000 mg/day (weeks 2 and 3) to 3000 mg/day (weeks 4 and 5) and to 4000 mg/day (week 6). The doses of the ongoing medication received by the patient remained fixed throughout the study and no changes in medication were performed.
(§2) In addition, cognitive performance was assessed pre- and post DSR treatment. For this purpose, a 1.5-hour neurocognitive assessment battery (nine computerized and two paper/pencil tests) was employed that measures accuracy and speed of performance in major cognition domains, including attention/vigilance, planning, short-term and working memory, decision making, abstraction and mental flexibility. All the tests were formatted like games and puzzles, and were administered to the patient as part of the comprehensive neuropsychiatric assessment at baseline and the end of study. The neurocognitive battery included the 1) Test of Attentional Vigilance (TOAV, (Forbes, 1998, Journal of Clinical Psychology 54:461-476; Greenberg, 1993, Journal of Child Psychology and Psychiatry 34: 1019-30)); 2) Tower of London (TOL, (Shailice, 1982, Specific impairments of planning Philosophical Transactions of the Royal Society of London. Series B, Biological Sciences 298:199-209); 3-4) Digit Span Test (DST, forward and backward (Wechsler 1997, The Wechsler adult intelligence scale-III. San Antonio, Tex.: Psychological Corporation; Kaplan 1991, The WAIS-R as a neuropsychological instrument. San Antonio, Tex.: The Psychological Corporation; Lamar et al., 2007, Neuropsychologia 45:245-54; Lamar et al., 2008, Neuropsychologia 46:2597-601)); 5-6) Corsi Block Tapping Test (CBTT, forward and backward, (Corsi, 1972, Dissertation Abstracts International. 34:819B; Kessels et al., 2000, Applied Neuropsychology 7:252-58, Kessels et al., 2008, Assessment 15:426-34)); 7) Flanker Task (Erikson and Eriksen, 1974; Perception & Psychophysics 25: 249-63, Stins et. al., 2007, Advances in Cognitive Psychology 3:389-96); 8) Time Wall (Perez et al., 1987, Unified Tri-services cognitive performance assessment battery: review and methodology; DTIC Document ADA181697, http://www.dtic.mil/dtic/tr/fulltext/u2/a81697.pdf); and Wisconsin Card Sort Test (WCST, (Berg, 1948, J Gen Psychol39:15-22; Nelson, 1976, Cortex 12:313-24)). […]

The test system is the same in series [2]. As to the kind of experiment: Time Wall. As to conditions: post-6 weeks D-serine. It is filed as in vivo, human. On the procedure: as §1
In addition, cognitive performance was assessed pre- and post DSR treatment. For this purpose, a 1.5-hour neurocognitive assessment battery (nine computerized and two paper/pencil tests) was employed that measures accuracy and speed of performance in major cognition domains, including attention/vigilance, planning, short-term and working memory, decision making, abstraction and mental flexibility. All the tests were formatted like games and puzzles, and were administered to the patient as part of the comprehensive neuropsychiatric assessment at baseline and the end of study. […]

Series [3] has the same test system. The series is described as follows: Wisconsin Card Sort Test (WCST). Type of series: in vivo, human. As to conditions: post-6 weeks D-serine; pre-treatment subject unable to complete task. On the procedure:
as §1, §2

The test system is the same in series [4]. As to the kind of experiment: Electroencephalogram (EEG) pre- and post-DSR administration. It is filed as in vivo, human. The procedure: as §1
The patient underwent prior to entering the study and at study weeks 3 and 6 a medical work-up including complete medical history, and routine clinical blood work, including blood count+differential, lipids, and glucose levels, kidney, thyroid, and liver function parameters, urinalysis, and blood pressure measurements. Abdominal ultrasound was performed prior to study entry and electroencephalogram (EEG) and brain magnetic resonance imaging (MR1) were obtained pre- and post-DSR administration.

Series [5] has as its system Rodent neuron cell cultures treated with anti-NMDAR antibodies. The series is described as follows: Example 3: NMDAR localization in neuron cultures treated with anti-NMDAR antibodies. It is filed as cell-based. The settings on record: D-Serine 50-200 uM; histological measurements. The procedure:
Rodent neuron cell cultures are treated with anti-NMDAR antibodies as described in Hughes E G et al., J Neurosci 2012 30(17):5866-75. […] The determination of receptors localization and other relevant measures is based on histological measurements.
Immunohistochemical methods will be applied to document (a) localization of NMDAR and NR1 and NR2 subunits; (b) loss of oligodendrocytes; (c) changes in astrocytes (S100beta) and microglia (cd11b), (d) expression of neurotrophic factors: brain derived neurotrophic factor (BDNF), nerve growth factor (NGF) and ciliary neurotrophic factor (CNTF); (e) markers of neurogenesis—doublecortin (17) and apoptosis—caspase3 (9). Quantification of histological measurements is based on images in several cortical subregions, striatum, […], hippocampus, and cerebellum.

For series [6] the following is noted: acute and chronic administration of 1-2 g DSR in humans; cited from earlier work.

Turning to `N[C@H](CO)C(=O)O` [D-serine], the “ToL correctly solved trials, total (0-12)” value in series [1] (pre-treatment 6) stood at 4. In series [1] (pre-treatment 15.48 ± 4.43), the “ToL preplanning time, mean ± SD” value was determined as 11.24 ± 4.73 s. The “ToL movement execution time, mean ± SD” value in series [1] (pre-treatment 22.57 ± 11.998) was determined as 19.30 ± 15.42 s. For the same compound, in series [1] (pre-treatment 456.582), the “ToL total time (0-720 seconds)” value came to 366.415 s. The “Time Wall accuracy score, mean ± SD” value in series [2] (pre-treatment 0.056 ± 0.053) is listed as 0.077 ± 0.051. The “Time Wall correctly estimated trials, total (0-20)” value in series [2] (pre-treatment 12) was 6. In addition, in series [3], the “WCST Category Score” value worked out at 5, the “WCST Total correct score %” value came to 81.25%, the “WCST Total error score %” value was determined as 18.75% and the “WCST Trials to complete 1st category” value was 12. Also, the “Current latency of EDB over the right frontal area” value in series [4] (following DSR treatment, t=2.686, df=113, p=0.0083, F8 channel) is recorded as “significant reduction”. In series [4] (post- vs pre-DSR administration (six weeks)), the “EEG extreme delta brush (EDB) pattern” value is “attenuation of the EDB pattern”. Moreover, the “EEG coherence between electrodes” value in series [4] (post- vs pre-six weeks of D-serine, across all frequency bands) was “Distinct new patterns of EEG coherence”. In series [5], the “Effect on NMDAR intracellular localization” value is “reversing receptor intracellular localization”. Further, the “Increase in DSR serum levels” value in series [6] is at least 100 times.
